Experimental data as given in ChEMBL document CHEMBL4251601 (Eur J Med Chem, 2018).

Key:
[1] = species on record: Homo sapiens; assay: Selectivity ratio of IC50 for CDK1/Cyclin-A2 (unknown origin) to IC50 for CDK6/Cyclin-D3 (unknown origin)
[2] = target: Cyclin-dependent kinase 4/cyclin D1 (Homo sapiens, UniProt P11802); assay: Inhibition of CDK4/Cyclin-D1 (unknown origin) using histone-H1 as substrate after 90 mins by ADP-Glo assay; assay type: protein-complex assay
[3] = Clearance in Sprague-Dawley rat at 2 mg/kg, iv administered as single dose by LC-MS/MS analysis; assay type: ADME, organism-based; conditions: in vivo
[4] = AUC (0 to infinity) in Sprague-Dawley rat at 2 mg/kg, iv administered as single dose by LC-MS/MS analysis; assay type: ADME, organism-based; design: dose 2 mg/kg, route intravenous, time infinity; conditions: Sprague-Dawley, in vivo
[5] = Cmax in Sprague-Dawley rat at 5 mg/kg, po administered as single dose by LC-MS/MS analysis; assay type: ADME, organism-based; design: dose 5 mg/kg, route oral; conditions: in vivo
[6] = Volume of distribution at steady state in Sprague-Dawley rat at 2 mg/kg, iv administered as single dose by LC-MS/MS analysis; assay type: ADME, organism-based; conditions: in vivo, read-out: Vdss
[7] = AUC (0 to 24 hrs) in Sprague-Dawley rat at 5 mg/kg, po administered as single dose by LC-MS/MS analysis; assay type: ADME, organism-based; design: time < 24 hr, dose 5 mg/kg, route oral; conditions: in vivo
[8] = Oral bioavailability in Sprague-Dawley rat at 5 mg/kg administered as single dose by LC-MS/MS analysis; assay type: ADME, organism-based; conditions: Sprague-Dawley, in vivo
[9] = Half life in Sprague-Dawley rat at 2 mg/kg, iv administered as single dose by LC-MS/MS analysis; assay type: ADME, organism-based; conditions: in vivo
[10] = AUC (0 to 24 hrs) in Sprague-Dawley rat at 2 mg/kg, iv administered as single dose by LC-MS/MS analysis; assay type: ADME, organism-based; design: dose 2 mg/kg, time < 24 hr, route intravenous; conditions: in vivo
[11] = target: CDK6/cyclin D3 (Homo sapiens, UniProt Q00534); assay: Inhibition of CDK6/Cyclin-D3 (unknown origin) using histoneH1 as substrate after 90 mins by ADP-Glo assay; assay type: protein-complex assay
CDK6/cyclin D3, sequence (P30281 whole entry): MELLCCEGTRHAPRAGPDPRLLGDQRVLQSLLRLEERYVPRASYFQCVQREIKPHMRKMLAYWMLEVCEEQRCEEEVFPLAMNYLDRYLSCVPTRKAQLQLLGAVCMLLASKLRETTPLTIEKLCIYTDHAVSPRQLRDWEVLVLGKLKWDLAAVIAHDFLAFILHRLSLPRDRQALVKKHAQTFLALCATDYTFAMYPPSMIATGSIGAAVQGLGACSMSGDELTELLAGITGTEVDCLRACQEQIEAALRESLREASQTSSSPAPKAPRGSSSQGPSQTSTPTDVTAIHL
CDK6/cyclin D3, sequence (Q00534 whole entry): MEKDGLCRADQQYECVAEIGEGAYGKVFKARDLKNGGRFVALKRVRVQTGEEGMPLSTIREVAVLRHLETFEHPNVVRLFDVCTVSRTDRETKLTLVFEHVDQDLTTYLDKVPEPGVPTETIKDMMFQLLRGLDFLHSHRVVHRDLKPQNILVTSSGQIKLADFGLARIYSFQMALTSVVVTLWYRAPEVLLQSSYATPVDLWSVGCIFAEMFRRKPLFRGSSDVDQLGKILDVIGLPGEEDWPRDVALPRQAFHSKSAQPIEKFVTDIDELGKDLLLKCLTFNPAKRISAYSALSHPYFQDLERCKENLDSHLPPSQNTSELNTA

[12] = AUC (0 to infinity) in Sprague-Dawley rat at 5 mg/kg, po administered as single dose by LC-MS/MS analysis; assay type: ADME, organism-based; design: dose 5 mg/kg, route oral, time infinity; conditions: Sprague-Dawley, in vivo
[13] = target: CDK1/Cyclin A (Homo sapiens, UniProt P06493); assay: Inhibition of CDK1/Cyclin-A2 (unknown origin) using histone-H1 as substrate after 90 mins by ADP-Glo assay; assay type: protein-complex assay
CDK1/Cyclin A, sequence (P06493 whole entry): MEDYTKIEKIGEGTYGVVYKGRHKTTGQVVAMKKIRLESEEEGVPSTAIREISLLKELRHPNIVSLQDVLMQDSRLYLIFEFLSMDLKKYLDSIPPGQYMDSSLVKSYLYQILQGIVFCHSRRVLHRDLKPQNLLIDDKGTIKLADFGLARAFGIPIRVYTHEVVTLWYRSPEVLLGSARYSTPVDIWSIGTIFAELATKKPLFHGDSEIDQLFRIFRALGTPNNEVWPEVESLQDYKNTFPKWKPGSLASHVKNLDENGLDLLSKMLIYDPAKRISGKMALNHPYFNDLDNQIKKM
CDK1/Cyclin A, sequence (P20248 whole entry, further chain): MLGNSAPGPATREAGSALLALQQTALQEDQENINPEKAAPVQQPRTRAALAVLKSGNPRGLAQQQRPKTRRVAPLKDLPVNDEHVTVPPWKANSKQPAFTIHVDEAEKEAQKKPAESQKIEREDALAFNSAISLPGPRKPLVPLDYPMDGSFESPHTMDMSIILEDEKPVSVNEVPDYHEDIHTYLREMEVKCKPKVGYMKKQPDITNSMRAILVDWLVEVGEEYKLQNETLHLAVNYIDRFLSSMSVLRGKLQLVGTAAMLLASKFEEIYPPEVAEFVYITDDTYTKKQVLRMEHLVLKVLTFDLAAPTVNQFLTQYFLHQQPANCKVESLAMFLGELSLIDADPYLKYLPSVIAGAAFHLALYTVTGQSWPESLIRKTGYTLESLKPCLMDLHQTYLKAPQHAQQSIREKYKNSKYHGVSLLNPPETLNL

[14] = Half life in Sprague-Dawley rat at 5 mg/kg, po administered as single dose by LC-MS/MS analysis; assay type: ADME, organism-based; conditions: in vivo
[15] = Intrinsic clearance in CD-1 mouse liver microsomes at 10 uM preincubated for 5 mins followed by NADP addition by LC-MS/MS analysis; assay type: ADME, microsome; conditions: read-out: CLH
[16] = Half life in CD-1 mouse liver microsomes at 10 uM preincubated for 5 mins followed by NADP addition by LC-MS/MS analysis; assay type: ADME, microsome
[17] = Stability in CD-1 mouse liver microsomes assessed as parent compound remaining at 10 uM measured after 60 mins in absence of NADPH-regenerating system by LC-MS/MS analysis; assay type: ADME, microsome; conditions: read-out: Stability
[18] = Stability in CD-1 mouse liver microsomes assessed as parent compound remaining at 10 uM preincubated for 5 mins followed by NADP addition measured after 60 mins by LC-MS/MS analysis; assay type: ADME, microsome; conditions: read-out: Stability

Cyclin-dependent kinase 4/cyclin D1, sequence (P11802 whole entry): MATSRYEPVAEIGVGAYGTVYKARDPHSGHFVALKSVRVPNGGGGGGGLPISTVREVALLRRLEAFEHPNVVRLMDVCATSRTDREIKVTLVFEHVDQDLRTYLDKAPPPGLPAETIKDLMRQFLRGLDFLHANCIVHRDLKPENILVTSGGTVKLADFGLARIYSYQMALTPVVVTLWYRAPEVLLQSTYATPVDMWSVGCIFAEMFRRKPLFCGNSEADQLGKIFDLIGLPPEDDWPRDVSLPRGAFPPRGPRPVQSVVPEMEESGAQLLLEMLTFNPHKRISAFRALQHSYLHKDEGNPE
Cyclin-dependent kinase 4/cyclin D1, sequence (P24385 whole entry, further chain): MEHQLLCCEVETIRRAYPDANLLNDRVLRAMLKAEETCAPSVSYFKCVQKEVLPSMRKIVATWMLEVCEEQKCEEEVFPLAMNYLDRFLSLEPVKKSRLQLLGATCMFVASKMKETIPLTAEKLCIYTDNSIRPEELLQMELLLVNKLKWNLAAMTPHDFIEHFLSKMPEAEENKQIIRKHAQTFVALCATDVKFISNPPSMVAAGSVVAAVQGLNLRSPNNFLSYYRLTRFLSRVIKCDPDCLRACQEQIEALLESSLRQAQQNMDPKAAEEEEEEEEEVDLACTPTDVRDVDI

| Compound | Ratio IC50 [1] | IC50 [2] | clearance [3] | AUC(0-inf) [4] | Cmax [5] | Vd [6] | AUC(0-t) at 24 h [7] | bioavailability [8] | half-life [9] | AUC(0-t) at 24 h [10] | IC50 [11] | AUC(0-inf) [12] | IC50 [13] | half-life [14] | microsomal CLint at 10 µM [15] | half-life at 10 µM [16] | remaining at 1 h, 10 µM [17] | remaining at 1 h, 10 µM [18] |
| --- | --- | --- | --- | --- | --- | --- | --- | --- | --- | --- | --- | --- | --- | --- | --- | --- | --- | --- |
| CCC1(CC)C(C)=Nc2c(F)cc(-c3nc(Nc4ccc(N5CCNCC5)cn4)ncc3F)cc21 | 27 | 3 nM | 125 mL/min/kg | 270 ng·h/mL | 13.7 ng/mL | 28.1 L/kg | 106 ng·h/mL | 16% | 3 h | 256 ng·h/mL | 3 nM | – | – | – | – | – | – | – |
| CC1=Nc2ccc(-c3nc(Nc4ccc(N5CCN(C)CC5)cn4)ncc3F)cc2C12CCCC2 | 46 | 15 nM | 72.9 mL/min/kg | 458 ng·h/mL | 28.9 ng/mL | 15.7 L/kg | 269 ng·h/mL | 24% | 4.8 h | 442 ng·h/mL | 9 nM | 382 ng·h/mL | – | – | – | – | – | – |
| CCN1CCN(c2ccc(Nc3ncc(F)c(-c4ccc5c(c4)C(C)(CC)C(C)=N5)n3)nc2)CC1 (stereo not drawn) | 25 | – | – | – | – | – | – | – | – | – | 4 nM | – | 101 nM | – | – | – | – | – |
| CCN1CCN(c2ccc(Nc3ncc(F)c(-c4cc(F)c5c(c4)C4(CCCC4)C(C)=N5)n3)nc2)CC1 | – | 18 nM | 15 mL/min/kg | 2230 ng·h/mL | 70.4 ng/mL | 5.7 L/kg | 842 ng·h/mL | 16% | 7 h | 2110 ng·h/mL | 16 nM | 1360 ng·h/mL | – | 9.8 h | – | – | – | – |
| CC1=Nc2c(F)cc(-c3nc(Nc4ccc(N5CCN(C)CC5)cn4)ncc3F)cc2C12CCCC2 | 16 | – | 42.3 mL/min/kg | 796 ng·h/mL | 37 ng/mL | 8.5 L/kg | 386 ng·h/mL | 21% | 3.8 h | 761 ng·h/mL | – | 420 ng·h/mL | – | 5.1 h | – | – | – | – |
| CCC1(C)C(C)=Nc2c(F)cc(-c3nc(Nc4ccc(N5CCNCC5)cn4)ncc3F)cc21 (stereo not drawn) | 28 | 44 nM | 125 mL/min/kg | 270 ng·h/mL | 18 ng/mL | 28.1 L/kg | 145 ng·h/mL | 23% | 3 h | 256 ng·h/mL | 3 nM | – | 84 nM | – | – | – | – | – |
| CC1=Nc2c(F)cc(-c3nc(Nc4ccc(N5CCN(CCO)CC5)cn4)ncc3F)cc2C12CCCC2 | 55 | 17 nM | – | – | – | – | – | – | – | – | 6 nM | – | – | – | – | – | – | – |
| CCC1(CC)C(C)=Nc2c(F)cc(-c3nc(Nc4ccc(N5CCN(C)CC5)cn4)ncc3F)cc21 | 11 | 10 nM | 167 mL/min/kg | 213 ng·h/mL | – | 17.9 L/kg | – | – | 1.4 h | 204 ng·h/mL | – | – | 96 nM | – | – | – | – | – |
| CCC1(C)C(C)=Nc2ccc(-c3nc(Nc4ccc(N5CCNCC5)cn4)ncc3F)cc21 (stereo not drawn) | 14 | 28 nM | – | – | – | – | – | – | – | – | – | – | 142 nM | – | – | – | – | – |
| CCN1CCN(Cc2ccc(Nc3ncc(F)c(-c4ccc5c(c4)C4(CCCC4)C(C)=N5)n3)nc2)CC1 | 38 | 13 nM | – | – | – | – | – | – | – | – | 7 nM | – | – | – | – | – | – | – |
| CCC1(C)C(C)=Nc2c(F)cc(-c3nc(Nc4ccc(C5CCNCC5)cn4)ncc3F)cc21 (stereo not drawn) | 18 | – | – | – | – | – | – | – | – | – | 6 nM | – | 110 nM | – | – | – | – | – |
| CC1=Nc2c(F)cc(-c3nc(Nc4ccc(N5CCN(C(C)C)CC5)cn4)ncc3F)cc2C12CCCC2 | 106 | 78 nM | – | – | – | – | – | – | – | – | 10 nM | – | 1060 nM | – | – | – | – | – |
| CC1=Nc2ccc(-c3nc(Nc4ccc(C5CCN(C)CC5)cn4)ncc3F)cc2C12CCCC2 | 12 | 8 nM | – | – | – | – | – | – | – | – | 4 nM | – | – | – | – | – | – | – |
| CC1=Nc2ccc(-c3nc(Nc4ccc(N5CCNCC5)cn4)ncc3F)cc2C12CCCC2 | 58 | 4 nM | 28.3 mL/min/kg | 1180 ng·h/mL | 80.3 ng/mL | 11 L/kg | 980 ng·h/mL | 34% | 4.8 h | 1140 ng·h/mL | 4 nM | – | – | – | – | – | – | – |
| CCC1(C)C(C)=Nc2ccc(-c3nc(Nc4ccc(C5CCN(C)CC5)cn4)ncc3F)cc21 (stereo not drawn) | 6 | 18 nM | – | – | – | – | – | – | – | – | 9 nM | – | 54 nM | – | – | – | – | – |
| CC1=Nc2c(F)cc(-c3nc(Nc4ccc(N5CCNCC5)cn4)ncc3F)cc2C12CCCC2 | 25 | 8 nM | 34.7 mL/min/kg | 1000 ng·h/mL | 56.6 ng/mL | 17.2 L/kg | 671 ng·h/mL | 28% | 5.8 h | 949 ng·h/mL | 6 nM | – | – | – | 49.2 µL/min/mg | 0.47 h | 94.4% | 24% |
